Assay type in all cases: cell-based
Assay [1] has as its target T1, Brd4 (Homo sapiens, UniProt O60885).
T1 construct: endogenous in cells; host or cells: HEK293, HAP1, MV4-11
The assay can be described thus: Mechanistic evaluation of Brd4 degradation in HEK293 cells (degrasyn or I-BET726 pre-treatment). The conditions noted are these: 6 h. The protocol: (§1) Immunoblotting. proteins were separated by SDS-PAGE on NuPage 4-12% Bis-Tris gels, followed by transfer to Amersham Protran 0.45 NC nitrocellulose membrane (GE Healthcare) using wet transfer. Membranes were blocked using 5% w/v milk in Tris-buffered saline (TBS) with 0.1% Tween-20. Blots were probed (overnight at 4° C.) using anti-Brd2 (Abcam ab139690, 1:2,000 dilution), anti-Brd3 (Abcam ab50818, 1:500 dilution), and anti-Brd4 (Abcam ab128874, 1:1,000 dilution) primary antibodies, as appropriate. The next day, blots were washed with TBST and incubated (1 hr at RT) with anti-Tubulin hFAB-rhodamine (BioRad, 12004166) primary antibody, and either anti-rabbit IRDye 800CW (Licor 1:10,000 dilution) or anti-mouse IRDye 800CW (Licor 1:10,000 dilution) secondary antibody. Blots were developed using a Bio-Rad ChemiDoc MP Imaging System, and band quantification was performed using Image Studio software (LiCor). Band intensities were normalized to the tubulin loading control and reported as % of the average 0.1% DMSO vehicle intensity. Degradation data was plotted and analysed using Prism (Graphpad, version 8).
(§2) HEK293 (1×10^6) cells were seeded in standard 6-well plates (2 mL medium) overnight before pre-treatment with inhibitors (5 μM degrasyn or 1 μM I-BET726). After a 0.5 h pre-incubation time, cells were subsequently treated with vehicle, 0.1 μM MZ1 or 0.1 μM 05IB9, yielding a final overall DMSO concentration of 0.2% v/v. After 6 h incubation, cells were washed with DPBS (Gibco) and lysed using 85 μL RIPA buffer (Sigma-Aldrich) supplemented with cOmplete Mini EDTA-free protease inhibitor cocktail (Roche) and benzonase. Lysates were clarified by centrifugation (20,000 g, 10 min, 4° C.) and the total protein content of the supernatant was quantified using a Bradford colorimetric assay. Samples were prepared using equal amounts of total protein and LDS sample buffer (Invitrogen).

The target in assay [2] is T1, Brd4. As to the kind of experiment: Immunoblot in MV4-11 cells. The conditions noted are these: MV4-11, 6 h, increasing concentrations. As for the experimental part:
(§3) MV4-11 (0.7×10^6 cells/mL) were seeded in 10 cm plates (10 mL DMEM supplemented with 10% FBS and L-glutamine) overnight before treatment with compounds at the desired concentration and with a final DMSO concentration of 0.1% v/v. After 6 h incubation time, cells were washed 2× with DPBS (Gibco) and lysed using 85 μL RIPA buffer (Sigma-Aldrich) supplemented with cOmplete Mini EDTA-free protease inhibitor cocktail (Roche) and benzonase. Lysates were clarified by centrifugation (20,000 g, 10 min, 4° C.) and the total protein content of the supernatant was quantified using a Bradford colorimetric assay. Samples were prepared using equal amounts of total protein and LDS sample buffer (Invitrogen). For immunoblot analysis, the following antibodies were used: anti-Brd2 (ab139690, 1:2,000 dilution), anti-Brd3 (ab50818, 1:500 dilution), anti-Brd4 (ab128874, 1:1,000 dilution), anti-c-myc (ab32072, 1:1,000 dilution), anti- total PARP (BD Bioscience #556494; 1:1,000 dilution), anti-cleaved PARP (CST-9541T, 1:1,000 dilution), and anti-Tubulin hFAB-rhodamine (BioRad, 12004166, 1:10,000 dilution).
(A western blot detects proteins with antibodies after separation by electrophoresis.)

For the next assay, the system named is c-MYC. As to the kind of experiment: Immunoblot of c-MYC levels in MV4-11 cells. The following applies: MV4-11, 6 h. The protocol: as §3
The subject of the next assay is PARP. As to the kind of experiment: Immunoblot of total and cleaved PARP in MV4-11 cells. The following applies: MV4-11, 6 h. The protocol: as §3
The next assay addresses Brd2 (Homo sapiens, UniProt P25440). As to the kind of experiment: Immunoblot in MV4-11 cells. On the set-up: endogenous in cells; host or cells: MV4-11. The following applies: MV4-11, 6 h, increasing concentrations. The protocol: as §3
In a further assay the target is Brd3 (Homo sapiens, UniProt Q15059). As to the kind of experiment: Immunoblot in MV4-11 cells. On the set-up: endogenous in cells; host or cells: MV4-11. The conditions noted are these: MV4-11, 6 h, increasing concentrations. The protocol: as §3
The target of assay [3] is T1, Brd4. As to the kind of experiment: Negative SAR: Brd4 immunoblot in HEK293 cells, active vs negative control. The following applies: HEK293, 1 μM, 6 h, three independent treatments. As for the experimental part:
as §1
HEK293 (1×10^6) cells incubated with DMSO, 1 μM 05IB11 or 1 μM 05IB6 for 6 h with a final DMSO concentration of 0.1% v/v. Cells from three independent treatments (n=3) were lysed with RIPA buffer and immunoblotted for Brd4 and β-tubulin.

The target of assay [4] is T1, Brd4. As to the kind of experiment: Proteasome dependency of Brd4 degradation in HEK293 cells (bortezomib pre-treatment). The conditions noted are these: 6 h. The protocol: as §1
as §2, with “10” for “inhibitors (5”, “bortezomib.” for “degrasyn or 1 μM I-BET726).”, “1” for “0.1”, “05IB6,” for “05IB9,”

Molecules are shown by their SMILES.

Brd2, sequence (P25440 whole entry): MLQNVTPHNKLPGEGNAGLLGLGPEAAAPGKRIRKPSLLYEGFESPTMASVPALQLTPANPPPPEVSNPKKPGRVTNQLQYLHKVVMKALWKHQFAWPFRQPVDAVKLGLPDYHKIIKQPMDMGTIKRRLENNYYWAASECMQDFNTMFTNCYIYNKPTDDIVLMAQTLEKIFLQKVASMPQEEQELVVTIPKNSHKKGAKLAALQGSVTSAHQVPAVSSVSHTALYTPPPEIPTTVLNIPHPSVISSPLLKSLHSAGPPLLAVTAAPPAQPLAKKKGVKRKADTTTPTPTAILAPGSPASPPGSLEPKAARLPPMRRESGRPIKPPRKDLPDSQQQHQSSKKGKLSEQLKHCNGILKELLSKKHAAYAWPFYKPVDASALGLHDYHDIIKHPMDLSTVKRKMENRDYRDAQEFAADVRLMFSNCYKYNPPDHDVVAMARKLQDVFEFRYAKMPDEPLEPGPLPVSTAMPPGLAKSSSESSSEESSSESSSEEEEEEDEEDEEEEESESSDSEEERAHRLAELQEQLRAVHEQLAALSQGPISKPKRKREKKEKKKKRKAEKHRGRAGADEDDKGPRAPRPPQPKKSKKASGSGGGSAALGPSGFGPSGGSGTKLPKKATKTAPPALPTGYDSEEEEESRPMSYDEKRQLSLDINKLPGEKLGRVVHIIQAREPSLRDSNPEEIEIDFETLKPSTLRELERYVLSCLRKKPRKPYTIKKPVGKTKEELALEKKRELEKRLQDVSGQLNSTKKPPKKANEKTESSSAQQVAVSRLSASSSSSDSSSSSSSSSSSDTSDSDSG
Brd3, sequence (Q15059 whole entry): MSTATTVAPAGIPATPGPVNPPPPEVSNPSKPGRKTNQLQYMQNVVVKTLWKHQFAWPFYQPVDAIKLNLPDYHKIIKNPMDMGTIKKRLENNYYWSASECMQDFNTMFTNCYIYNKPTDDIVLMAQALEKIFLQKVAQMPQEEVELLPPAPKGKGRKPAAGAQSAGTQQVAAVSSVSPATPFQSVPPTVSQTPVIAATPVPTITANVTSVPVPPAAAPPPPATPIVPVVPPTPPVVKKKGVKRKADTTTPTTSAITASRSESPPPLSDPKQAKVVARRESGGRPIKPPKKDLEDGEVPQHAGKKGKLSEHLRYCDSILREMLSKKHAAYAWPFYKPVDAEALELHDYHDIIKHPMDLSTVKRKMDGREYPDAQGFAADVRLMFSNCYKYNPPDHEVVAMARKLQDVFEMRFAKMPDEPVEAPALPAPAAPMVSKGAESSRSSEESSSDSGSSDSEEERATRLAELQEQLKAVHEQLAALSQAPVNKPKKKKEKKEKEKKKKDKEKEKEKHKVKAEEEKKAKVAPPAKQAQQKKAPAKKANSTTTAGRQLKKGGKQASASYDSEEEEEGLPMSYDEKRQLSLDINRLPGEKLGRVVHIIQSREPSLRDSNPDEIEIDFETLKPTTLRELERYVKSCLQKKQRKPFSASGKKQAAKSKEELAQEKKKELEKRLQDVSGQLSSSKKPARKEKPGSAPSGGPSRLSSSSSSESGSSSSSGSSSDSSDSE

On to `CCCC(NC(=O)/C(C#N)=C/c1nccs1)c1ccc(OCCOCCOCCOCCOCCOCCOCCNC(=O)c2ccc(-c3ccc4c(c3)[C@H](Nc3ccc(Cl)cc3)C[C@H](C)N4C(C)=O)cc2)cc1` (stereo partly shown) [Example 05IB9], for which the “Brd4 degradation in the presence of degrasyn or I-BET726” value at Brd4 [1] (HEK293, 0.1 μM compound, 0.5 h pre-treatment with 5 μM degrasyn or 1 μM I-BET726) was “completely blocked in the presence of either degrasyn or I-BET726”. The Brd4 protein levels entry on Brd4 [1] (HEK293, 0.1 μM) was “depletion”. The Brd4 levels result at Brd4 [2] is “depletion”. The “decrease in c-MYC compared with inhibitor and negative control” value in the assay on c-MYC is “greater than inhibitor (I-BET726) alone and the negative control (05IB11)”. Moreover, in the assay on c-MYC (increasing concentrations), the c-MYC levels entry is recorded as “depletion”. Moreover, the “increase in C-PARP compared with inhibitor and negative control” value with PARP is “greater than inhibitor (I-BET726) alone and the negative control (05IB11)”. In the assay with PARP (increasing concentrations), the “cleaved PARP” value was “increase” and the “total PARP levels” value is on record as “depletion”. Also, on Brd2, the Brd2 levels entry is listed as “depletion”. Besides, at Brd3, the Brd3 levels entry is reported as “depletion”.

As for `CCCC(NC(=O)/C(C#N)=C/c1cccc(Br)n1)c1ccc(OCCOCCOCCOCCOCCOCCOCCNC(=O)c2ccc(-c3ccc4c(c3)[C@H](Nc3ccc(Cl)cc3)C[C@H](C)N4C(C)=O)cc2)cc1` (stereo partly shown) [Example 05IB6], the Brd4 levels entry on Brd4 [3] is “significant depletion”. Moreover, the “Brd4 degradation in the presence of bortezomib” value at Brd4 [4] (HEK293, 1 μM compound, 0.5 h pre-treatment with 10 μM bortezomib) is “completely blocked”. In addition, at Brd4 [4] (HEK293, 1 μM), the Brd4 protein levels result was “depletion”.

The record behind these values is patent US20210283139A1, “BIFUNCTIONAL MOLECULES FOR TARGETING UCHL5” (AMPHISTA THERAPEUTICS LTD, priority 2018, published 2021).
